Measurements from US8729115B2 (Cardiolynx AG, priority 2010, dated 2014).
Like-named read-outs stand apart in the source and are kept apart here.

Assays:
rat aortic ring segments = experiment: Isometric tension: vasodilation of rat aortic ring segments preconstricted with phenylephrine; format: cell-based; conditions: for EC50 / pD2-value (vasodilatory potency): concentration-relaxation curve; for EC50 / pD2-value (vasodilatory potency) / Vasodilatory potency (in words): phenylephrine-preconstricted rat aorta; for EC50: read-out: pD2-value (vasodilatory potency) (converted)
Method: Vasodilation of rat aortic ring segments preconstricted with phenylephrine, Example 3, Table 1. […].
After reaching a stable preconstriction of vascular tone, the vessels were dose-dependently vasodilated until the final tone at the highest added concentration of the vasodilator was reached. The vasodilators were added at half-logarithmic concentrations starting at 10^−8 M (=10 nanomolar). Vasodilatory potency was compared creating a concentration-relaxation curve. The data are based on experiments with aorta from at least 6 rats on 3 different days.

[1] = test system: isolated rat cardiac mitochondria; experiment: ROS/RONS formation in isolated mitochondria (L-012 chemiluminescence)
Excerpt: Reactive oxygen and nitrogen species formation in response to in vitro challenge of isolated rat cardiac mitochondria based on reaction of the chemiluminescence dye L-012 (a luminal analogue), Example 4, Table 2. X-axis: compounds tested with concentration [μM]; y-axis: photons n per 30 sec of emission of chemiluminescence light (ECL).
Vascular oxidative stress is a well-known side effect of nitrate tolerance (an adverse condition that develops under chronic nitrate therapy). Therefore, the induction of reactive oxygen and nitrogen species formation in response to in vitro challenges with the test compounds was assessed in isolated mitochondria according to a published procedure [Daiber, A. et al., Mol Pharmacol 66 (2004), 1372-1382; Daiber, A. et al., Biochem Biophys Res Commun 338 (2005), 1865-1874; Daiber, A. et al., Mol Pharmacol 68 (2005), 579-588]. The assay is based on the reaction of the chemiluminescence dye L-012 (a luminol analogue) with reactive oxygen and nitrogen species (RONS, e.g. superoxide anion radicals, peroxynitrite anions or nitrogen dioxide radicals) and subsequent emission of chemiluminescence light (ECL). The signal is counted in photons/time (=counts/30 s). The data are based on experiments with cardiac mitochondria from at least 6 rats on 3 different days.

Wistar rats = experiment: Endothelial dysfunction, in vivo tolerance and cross-tolerance after 7 days treatment; set-up: species or system rat
Method: To assess the tendency of a given organic nitrate to induce in vivo tolerance and endothelial dysfunction, Wistar rats were treated for 7 days with placebo (solvent alone) or 3 increasing doses of the organic nitrate. […] Vascular function was assessed by isometric tension studies as described above. Acetylcholine (ACh) is an endothelium-dependent vasodilator whereas organic nitrates (e.g. compound 1 or nitroglycerin) are endothelium-independent vasodilators. Endothelial dysfunction will result in impaired ACh-dependent relaxation whereas nitrate tolerance and/or vascular dysfunction causes impaired compound 1 dependent or nitroglycerin dependent vasodilation.

Beagle dogs = experiment: Effects on blood pressure in Beagle dogs; format: in vivo, dog
Method: Each group was administered three ascending doses separated by 4 wash out days providing 9 different treatments as shown in the following table:
The liquid was administered per gavage. […] The capsule was administered orally.
In this group the liquid was administered intravenously as a slow bolus injection.
Blood pressure was assessed for all treatments before dosing and 1, 2, 3, 4, 5, 6, 8, 12 and 24 h after dosing.

[2] = 10-1000 μM, isolated mitochondria

| EC50 (rat aortic ring segments) [µM] | ROS formation, Mean (ECL signal) ([1]; rat, 10 μM) [counts/30 s] | ROS formation, Mean (ECL signal) ([1]; rat, 100 μM) [counts/30 s] | ROS formation, Mean (ECL signal) ([1]; rat, 1000 μM) [counts/30 s] | Molecule | Isometric tension, relaxation (Mean ± SEM) (rat aortic ring segments; Log [M] −3.5) [%] | Isometric tension, relaxation (Mean ± SEM) (rat aortic ring segments; Log [M] −4) [%] | Isometric tension, relaxation (Mean ± SEM) (rat aortic ring segments; Log [M] −4.5) [%] | Isometric tension, relaxation (Mean ± SEM) (rat aortic ring segments; Log [M] −5) [%] | Isometric tension, relaxation (Mean ± SEM) (rat aortic ring segments; Log [M] −5.5) [%] | Isometric tension, relaxation (Mean ± SEM) (rat aortic ring segments; Log [M] −6) [%] | Isometric tension, relaxation (Mean ± SEM) (rat aortic ring segments; Log [M] −6.5) [%] | Isometric tension, relaxation (Mean ± SEM) (rat aortic ring segments; Log [M] −7) [%] | Isometric tension, relaxation (Mean ± SEM) (rat aortic ring segments; Log [M] −7.5) [%] | Effect on RONS signal / in vitro oxidative stress (in words) [1, 2] | ROS formation, Mean (ECL signal) ([1]; Conc. 10 μM) [counts/30 s] | ROS formation, Mean (ECL signal) ([1]; Conc. 100 μM) [counts/30 s] | ROS formation, Mean (ECL signal) ([1]; Conc. 1000 μM) [counts/30 s] | pD2-value (vasodilatory potency) (rat aortic ring segments) | Vasodilatory potency (in words) (rat aortic ring segments) | Isometric tension, relaxation (Mean ± SEM) (rat aortic ring segments; Log [M] −3) [%] | further results |
| --- | --- | --- | --- | --- | --- | --- | --- | --- | --- | --- | --- | --- | --- | --- | --- | --- | --- | --- | --- | --- | --- |
| < 100 | 9007.83 | 4532.33 | 4386.00 | CCCCC(=O)N(Cc1ccc(-c2ccccc2-c2nnn[nH]2)cc1)C(C(=O)N(C)CCCCO[N+](=O)[O-])C(C)C [compound 2, (2R)-3-Methyl-2-(N-((2′-(1H-tetrazol-5-yl)biphenyl-4-yl)methyl)pentanamido)-butanoyl N-methyl-N-4-nitroxybutyl-amide] | 50.40 ± 7.89 | 31.38 ± 6.92 | 13.69 ± 3.68 | 8.61 ± 2.77 | 8.56 ± 2.18 | 7.43 ± 1.86 | 6.06 ± 1.69 | 4.61 ± 1.19 | 2.45 ± 0.93 | – | – | – | – | – | – | – | – |
| – | – | – | – | O=[N+]([O-])O[C@H]1CO[C@H]2[C@@H]1OC[C@H]2O[N+](=O)[O-] [ISDN, Isosorbide dinitrate] | – | – | – | – | – | – | – | – | – | increases the RONS signal in a concentration-dependent fashion, although only slightly | 5718.33 | 6608.83 | 8744.83 | – | – | – | – |
| – | – | – | – | (2R)-3-Methyl-2-(N-((2′-(1-(2″-nitroxyethylaminocarbonyloxymethyl)-1H-tetrazol-5-yl)biphenyl-4-yl)methyl)pentanamido)butanoyl N-methyl-N-4-nitroxybutyl-amide 1A and the corresponding 2-(2″-nitroxyethylaminocarbonyloxymethyl)-2H-tetrazol-5-yl isomer 1B [compound 1] | 91.52 ± 3.83 | 88.20 ± 5.11 | 81.43 ± 6.54 | 59.97 ± 6.28 | 43.47 ± 5.88 | 27.39 ± 4.09 | 14.66 ± 2.59 | 8.52 ± 1.64 | 4.64 ± 0.93 | – | 6820.33 | 4534.00 | 5088.33 | approximately 5.5 | – | – | Vasodilatory potency (in words) (rat aortic ring segments; listed as Valsartan dinitrate 1): as potent as isosorbide dinitrate; Vasodilatory potency (in words) (rat aortic ring segments; listed as valsartan dinitrate 1): as active as isosorbide dinitrate; Effect on RONS signal / in vitro oxidative stress (in words) ([1]; 10-1000 μM, isolated mitochondria, listed as dinitrate 1): RONS signal is suppressed at higher concentrations; Effect on RONS signal / in vitro oxidative stress (in words) ([1]; 10-1000 μM, isolated mitochondria, listed as valsartan dinitrate 1): does not induce in vitro oxidative stress in isolated mitochondria; Adverse effects on endothelial or vascular function, in vivo tolerance or cross tolerance (Wistar rats; low and middle dose): did not show any significant adverse effects on endothelial or vascular function; Toxic effects (Wistar rats; up to the highest dose): not show any toxic effects; Blood pressure lowering effect (in words) (Beagle dogs; gavage, oral capsule or intravenous, ascending doses): two sequential lowerings of blood pressure; Duration of effect on blood pressure (Beagle dogs; overall): at least 10 hours; Blood pressure lowering observed up to (Beagle dogs; several animals): up to 24 hours |
| < 1000 | 2971.58 | 2871.29 | 9878.96 | CCCCC(=O)N(Cc1ccc(-c2ccccc2-c2nnn[nH]2)cc1)[C@H](C(=O)O)C(C)C [compound 3, Valsartan] | 21.98 ± 3.75 | 9.43 ± 2.03 | 4.94 ± 2.65 | 0.29 ± 2.56 | −0.58 ± 3.84 | 1.05 ± 3.85 | 0.87 ± 2.97 | 1.64 ± 3.06 | 4.25 ± 2.13 | – | – | – | – | – | weak relaxing effects | – | – |
| – | – | – | – | O=[N+]([O-])OCCCCO [HBN, 1-Hydroxy-4-butyl nitrate] | 95.69 ± 2.40 | 77.74 ± 3.73 | 55.15 ± 5.33 | 34.50 ± 4.63 | 15.21 ± 4.71 | 7.11 ± 2.87 | 3.24 ± 2.77 | 1.42 ± 2.55 | 1.84 ± 1.72 | somewhat more pronounced effects on RONS formation | 5116.17 | 3005.75 | 10472.33 | approximately 4.5 | intermediate vasodilatory potency | 95.71 ± 1.27 | – |

| Molecule | EC50 (rat aortic ring segments) [µM] | ROS formation, Mean (ECL signal) ([1]; rat, 10 μM) [counts/30 s] | ROS formation, Mean (ECL signal) ([1]; rat, 100 μM) [counts/30 s] | ROS formation, Mean (ECL signal) ([1]; rat, 1000 μM) [counts/30 s] | Isometric tension, relaxation (Mean ± SEM) (rat aortic ring segments; Log [M] −3.5) [%] | Isometric tension, relaxation (Mean ± SEM) (rat aortic ring segments; Log [M] −4) [%] | Isometric tension, relaxation (Mean ± SEM) (rat aortic ring segments; Log [M] −4.5) [%] | Isometric tension, relaxation (Mean ± SEM) (rat aortic ring segments; Log [M] −5) [%] | Isometric tension, relaxation (Mean ± SEM) (rat aortic ring segments; Log [M] −5.5) [%] | Isometric tension, relaxation (Mean ± SEM) (rat aortic ring segments; Log [M] −6) [%] | Isometric tension, relaxation (Mean ± SEM) (rat aortic ring segments; Log [M] −6.5) [%] | Isometric tension, relaxation (Mean ± SEM) (rat aortic ring segments; Log [M] −7) [%] | Isometric tension, relaxation (Mean ± SEM) (rat aortic ring segments; Log [M] −7.5) [%] | Effect on RONS signal / in vitro oxidative stress (in words) [1, 2] | ROS formation, Mean (ECL signal) ([1]; Conc. 10 μM) [counts/30 s] | ROS formation, Mean (ECL signal) ([1]; Conc. 100 μM) [counts/30 s] | ROS formation, Mean (ECL signal) ([1]; Conc. 1000 μM) [counts/30 s] | pD2-value (vasodilatory potency) (rat aortic ring segments) | Vasodilatory potency (in words) (rat aortic ring segments) | Isometric tension, relaxation (Mean ± SEM) (rat aortic ring segments; Log [M] −3) [%] | further results |
| --- | --- | --- | --- | --- | --- | --- | --- | --- | --- | --- | --- | --- | --- | --- | --- | --- | --- | --- | --- | --- | --- |
| CNCCCCO[N+](=O)[O-].O=[N+]([O-])O [MNBAN, N-Methyl-N-(4-nitroxybutyl)ammonium nitrate] | ~31.6 | – | – | – | 88.56 ± 2.69 | 74.46 ± 4.13 | 50.81 ± 6.88 | 30.56 ± 7.29 | 14.85 ± 5.75 | 8.33 ± 4.85 | 5.04 ± 3.29 | 3.24 ± 2.80 | 1.72 ± 1.50 | – | – | – | – | – | intermediate vasodilatory potency | 95.84 ± 2.26 | Effect on RONS signal / in vitro oxidative stress (in words) [1]: somewhat more pronounced effects on RONS formation |
